PubChem BioAssay AID1845199 (Molecular Pharmacology Branch, DTP, NCI, 2023)

Test system: 556581-035-R-J1 tumor spheroid viability, % test/control
Experiment: Anticancer human tumor 556581-035-R-J1 patient-derived ovarian carcinoma cell line growth inhibition
Conditions: spheroids with HUVEC and MSC; for IC50: curve of first compound; for viability, T/C: stronger effect = lower value
In short: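 Single agents and combinations were tested on spheroids built from tumor cells plus HUVEC and hMSC, at half-log dilutions starting at or near clinical Cmax, else 10 microM; final DMSO 0.25% (v/v).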

[1] = second compound 0.003 µM, first compound 0.0316 µM
[2] = second compound 0.003 µM, first compound 0.1 µM
[3] = second compound 0.003 µM, first compound 0.316 µM
[4] = second compound 0.003 µM, first compound 1 µM
[5] = second compound 0.003 µM, first compound 3.16 µM
[6] = second compound 0.003 µM, first compound 10 µM
[7] = second compound 0.00949 µM, first compound 0.0316 µM
[8] = second compound 0.00949 µM, first compound 0.1 µM
[9] = second compound 0.00949 µM, first compound 0.316 µM
[10] = second compound 0.00949 µM, first compound 1 µM
[11] = second compound 0.00949 µM, first compound 3.16 µM
[12] = second compound 0.00949 µM, first compound 10 µM
[13] = second compound 0.03 µM, first compound 0.0316 µM
[14] = second compound 0.03 µM, first compound 0.1 µM
[15] = second compound 0.03 µM, first compound 0.316 µM
[16] = second compound 0.03 µM, first compound 1 µM
[17] = second compound 0.03 µM, first compound 3.16 µM
[18] = second compound 0.03 µM, first compound 10 µM
[19] = second compound 0.0949 µM, first compound 0.0316 µM
[20] = second compound 0.0949 µM, first compound 0.1 µM
[21] = second compound 0.0949 µM, first compound 0.316 µM
[22] = second compound 0.0949 µM, first compound 1 µM
[23] = second compound 0.0949 µM, first compound 3.16 µM
[24] = second compound 0.0949 µM, first compound 10 µM
[25] = second compound 0.3 µM, first compound 0.0316 µM
[26] = second compound 0.3 µM, first compound 0.1 µM
[27] = second compound 0.3 µM, first compound 0.316 µM
[28] = second compound 0.3 µM, first compound 1 µM
[29] = second compound 0.3 µM, first compound 3.16 µM
[30] = second compound 0.3 µM, first compound 10 µM
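Further: spheroids exposed to compounds for 7 days before viability read.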

Row | Structure (SMILES) | IC50 (second compound 0.003 µM) [nM] | IC50 (second compound 0.00949 µM) [nM] | IC50 (second compound 0.03 µM) [nM] | IC50 (second compound 0.0949 µM) [nM] | IC50 (second compound 0.3 µM) [nM] | viability, T/C [1] [%] | viability, T/C [2] [%] | viability, T/C [3] [%] | viability, T/C [4] [%] | viability, T/C [5] [%] | viability, T/C [6] [%] | viability, T/C [7] [%] | viability, T/C [8] [%] | viability, T/C [9] [%] | viability, T/C [10] [%] | viability, T/C [11] [%] | viability, T/C [12] [%] | viability, T/C [13] [%] | viability, T/C [14] [%] | viability, T/C [15] [%] | also measured
1 | CC(C)n1c(=O)n(C)c2cnc3cc(F)c(-c4ccc(OCCCN5CCCCC5)nc4)cc3c21 + CC[C@@]1(O)C(=O)OCc2c1cc1n(c2=O)Cc2cc3c(CN(C)C)c(O)ccc3nc2-1 | > 10000 | > 10000 | > 10000 | 3370 | < 31.6 | 84.2 | 85.9 | 80.6 | 82.4 | 62 | 60.6 | 81.9 | 76.4 | 77.6 | 77 | 72.7 | 58.9 | 75 | 73.5 | 71 | viability, T/C [16]: 72.1%; viability, T/C [17]: 66.5%; viability, T/C [18]: 54.5%; viability, T/C [19]: 49.7%; viability, T/C [20]: 51.4%; viability, T/C [21]: 51.7%; viability, T/C [22]: 55.3%; viability, T/C [23]: 50.3%; viability, T/C [24]: 36.8%; viability, T/C [25]: 12.3%; viability, T/C [26]: 12.5%; viability, T/C [27]: 13.1%; viability, T/C [28]: 13.6%; viability, T/C [29]: 12.1%; viability, T/C [30]: 11.6%
2 | CC1COCCN1c1cc(-c2ccnn2C)c2ccnc(-c3ccn[nH]3)c2n1 (stereo not given) + CC[C@@]1(O)C(=O)OCc2c1cc1n(c2=O)Cc2cc3c(CN(C)C)c(O)ccc3nc2-1 | 317 | 141 | < 31.6 | < 31.6 | < 31.6 | 85.3 | 66.5 | 50.2 | 39 | 33.7 | 30.8 | 68.9 | 53.5 | 40.9 | 38.1 | 31.6 | 29.2 | 42 | 35.3 | 35.5 | viability, T/C [16]: 35.1%; viability, T/C [17]: 29.8%; viability, T/C [18]: 28.4%; viability, T/C [19]: 21.6%; viability, T/C [20]: 20%; viability, T/C [21]: 20.5%; viability, T/C [22]: 26.5%; viability, T/C [23]: 27.1%; viability, T/C [24]: 27%; viability, T/C [25]: 4.51%; viability, T/C [26]: 5.08%; viability, T/C [27]: 6.11%; viability, T/C [28]: 10.5%; viability, T/C [29]: 16.3%; viability, T/C [30]: 15.6%
3 | COc1cc(C)[nH]c(=O)c1CN1CCc2c(Cl)cc(C(OC)C3COC3)c(Cl)c2C1=O (stereo not given) + CC[C@@]1(O)C(=O)OCc2c1cc1n(c2=O)Cc2cc3c(CN(C)C)c(O)ccc3nc2-1 | > 10000 | > 10000 | > 10000 | < 31.6 | < 31.6 | 93.5 | 103 | 98.2 | 101 | 101 | 94.9 | 90 | 92.1 | 85.8 | 87.1 | 91.5 | 86.3 | 64.9 | 65.1 | 64.3 | viability, T/C [16]: 65.3%; viability, T/C [17]: 67.9%; viability, T/C [18]: 65.4%; viability, T/C [19]: 45.3%; viability, T/C [20]: 48.7%; viability, T/C [21]: 49.9%; viability, T/C [22]: 49.2%; viability, T/C [23]: 47.9%; viability, T/C [24]: 47.1%; viability, T/C [25]: 13.2%; viability, T/C [26]: 9.94%; viability, T/C [27]: 12.4%; viability, T/C [28]: 12%; viability, T/C [29]: 10.7%; viability, T/C [30]: 11.1%
4 | COc1ccc([C@@H](O)c2cc(-c3ncnc4cc(N5CCOCC5)ccc34)c(F)cc2Cl)nn1 + CC[C@@]1(O)C(=O)OCc2c1cc1n(c2=O)Cc2cc3c(CN(C)C)c(O)ccc3nc2-1 | 1960 | 1540 | 785 | < 31.6 | < 31.6 | 99.8 | 99.8 | 83.4 | 63.7 | 40.5 | 31 | 85 | 86.9 | 75.3 | 57.8 | 37.8 | 31.2 | 70.9 | 64 | 62.9 | viability, T/C [16]: 46.6%; viability, T/C [17]: 33.7%; viability, T/C [18]: 29.5%; viability, T/C [19]: 48.6%; viability, T/C [20]: 47.6%; viability, T/C [21]: 50.5%; viability, T/C [22]: 41.8%; viability, T/C [23]: 30.8%; viability, T/C [24]: 25.5%; viability, T/C [25]: 13.7%; viability, T/C [26]: 11.9%; viability, T/C [27]: 11.6%; viability, T/C [28]: 13.2%; viability, T/C [29]: 17.4%; viability, T/C [30]: 18.5%
5 | [2H]c1nc(C)nc([2H])c1-c1cc(NC[C@@H](C)c2cccc3c(C(=O)NC)ccnc23)ncn1 + CC[C@@]1(O)C(=O)OCc2c1cc1n(c2=O)Cc2cc3c(CN(C)C)c(O)ccc3nc2-1 | > 10000 | > 10000 | > 10000 | 5690 | < 31.6 | 101 | 104 | 101 | 104 | 102 | 101 | 94.9 | 101 | 95.7 | 89.8 | 93.7 | 93.1 | 78.7 | 75.7 | 72.4 | viability, T/C [16]: 74.5%; viability, T/C [17]: 78.3%; viability, T/C [18]: 79%; viability, T/C [19]: 54.6%; viability, T/C [20]: 56%; viability, T/C [21]: 55.6%; viability, T/C [22]: 52.6%; viability, T/C [23]: 50.7%; viability, T/C [24]: 49%; viability, T/C [25]: 13.8%; viability, T/C [26]: 13.9%; viability, T/C [27]: 11.5%; viability, T/C [28]: 9.66%; viability, T/C [29]: 12.9%; viability, T/C [30]: 8.88%
